Patent US8765096B2, “Methods and compositions for treating and diagnosing kidney disease” (Endocyte, Inc, priority 2007, dated 2014)
“Also recorded” adds a separate entry of the source.

Tests used:
folate receptor = folate receptor (Homo sapiens, UniProt P15328); conditions: KB cells, 1 hour at 37° C., 100 nM 3H-folic acid, increasing competitor concentrations; folic acid = 1.0
KB cells = assay: Cell viability in KB cells; conditions: 2, 10, and 50 nM, at 24 hours

Chain of folate receptor (P15328 25-234): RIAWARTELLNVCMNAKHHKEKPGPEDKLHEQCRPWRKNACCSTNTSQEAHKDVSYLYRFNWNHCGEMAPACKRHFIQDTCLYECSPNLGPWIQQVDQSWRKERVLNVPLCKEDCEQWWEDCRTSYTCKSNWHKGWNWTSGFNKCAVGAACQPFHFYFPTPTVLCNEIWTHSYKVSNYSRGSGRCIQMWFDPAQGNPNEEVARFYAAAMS

Structure (SMILES): CO[C@H]1C[C@@H]2CC[C@@H](C)[C@@](O)(O2)C(=O)C(=O)N2CCCC[C@H]2C(=O)O[C@H]([C@H](C)C[C@@H]2CC[C@@H](O)[C@H](OC)C2)CC(=O)[C@H](C)/C=C(\C)[C@@H](OC(=O)OCCSSC[C@H](NC(=O)[C@H](CC(=O)O)NC(=O)[C@H](CC(=O)O)NC(=O)[C@H](CCCNC(=N)N)NC(=O)[C@H](CC(=O)O)NC(=O)CC[C@H](NC(=O)c2ccc(NCc3cnc4nc(N)[nH]c(=O)c4n3)cc2)C(=O)O)C(=O)O)[C@@H](OC)C(=O)[C@H](C)C[C@H](C)/C=C/C=C/C=C/1C [EC0371]
- relative affinity at the folate receptor (folate receptor): 0.5
- cytotoxicity (cell viability) (KB cells): Neither rapamycin nor EC0371 is cytotoxic; also recorded: neither rapamycin nor EC0371 was found to be cytotoxic
